According to PMC8744235 (Journal of Biomedical Science, 2022):
Several values for one entry are separate records, joined by “and”; a condition that tells them apart may be missing. Identical values can stand only once. Counter-ions that a name gives are not always drawn. Like-named read-outs stand apart in the source and are kept apart here.

Key:
FRTL-5 cells = conditions: inhibition of GHB uptake by FRTL-5 cells; cited from earlier work
[1] = system: [^3H]VPA uptake in MT (hSOD1^G93A) NSC-34 cell line; conditions: for [^3H]VPA uptake (% of control): 10 s, 37 °C
[2] = system: [^3H]VPA uptake in WT (hSOD1^WT) NSC-34 cell line; assay: Inhibition of [3H]VPA uptake by substrates/inhibitors/drugs, WT cell line; format: cell-based; conditions: for [^3H]VPA uptake (% of control): 10 s, 37 °C
[3] = system: [^3H]VPA uptake in MT (hSOD1^G93A) NSC-34 cell line; assay: cells
[4] = in the body; cited from earlier work
[5] = system: NSC-34 mutant-type (NSC34/hSOD1^G93A) cell line; assay: [3H]VPA cellular uptake and kinetic parameters, MT ALS cell line; format: in vitro ADME
Text: (§1) To maintain the sodium-free environment in the ECF buffer, NaCl and NaHCO3 was replaced with […] and N-methyl-D-glucamine (NMG), respectively. […] Similarly, to observe the effect of pH, the ECF buffer was adjusted to pH 6.0-7.4 using HCl or NaOH following a previously described experimental procedure. […] For the Eadie-Hofstee plot, the saturable components were plotted by subtracting the non-saturable uptake from the total uptake rate.

NSC-34 WT cell line = assay: Cell viability (MTT) assay, glutamate- and H2O2-induced neurotoxicity, WT; conditions: 24 h
Experimental: (§2) Then, an MTT [3‐(4,5‐[…]‐2‐yl)‐2,5‐diphenyltetrazoliumbromide] solution (5 mg/mL) was added and the cells were stored in the dark at 37 °C until the appearance of a purple precipitate (formazan). Then, DMSO was added and the cells were left for 15 min; afterwards, the absorbance was measured using an Infinite F200 PRO microplate reader (Tecan Trading AG, Männedorf, Switzerland) at […]. Images were captured using an EVOS XL Core Cell Imaging System (Life technologies, Thermo Fisher Scientific Korea Co., Ltd.).

NSC-34 MT cell line = assay: Cell viability (MTT) assay, glutamate- and H2O2-induced neurotoxicity, MT; conditions: 24 h
Experimental: as §2

[6] = system: NSC-34 wild-type (NSC-34/hSOD1^WT) cell line; assay: [3H]VPA cellular uptake and kinetic parameters, WT cell line; format: in vitro ADME
Text: as §1

SMCT1 = conditions: inhibition of uptake of SMCT1 substrate nicotinate, mouse colon cell lines; cited from earlier work
colonic mucosa = system: colonic mucosa; set-up: method as in PMID 32014250; conditions: cited from earlier work
[7] = NSC-34, pH 7.4, read-out: IC50 for [^3H]VPA uptake
[8] = NSC-34, pH 6, read-out: IC50 for [^3H]VPA uptake
[9] = 5–30 s, pH 6.0–7.4, sodium-free (NMG) buffer
[10] = high-affinity site, unlabeled VPA 0–10 mM, 10 s, pH 7.4, 37 °C
[11] = low-affinity site, 10 s, pH 7.4
[12] = VPA 2 mM added to glutamate (2 mM) and H2O2 (300 µM)

Compound | [^3H]VPA uptake (% of control) ([1]; compound 10 mM, pH 6.0) | [^3H]VPA uptake (% of control) ([2]; compound 10 mM, pH 6.0) | [^3H]VPA uptake (% of control) ([1]; compound 1 mM, pH 6.0) | [^3H]VPA uptake (% of control) ([2]; compound 1 mM, pH 6.0) | further results
C[C@H](O)C(=O)O [L-lactate] | – | – | – | – | IC50 (FRTL-5 cells): in the micromolar range
C[C@]12CC[C@@H]3c4ccc(OS(=O)(=O)O)cc4CC[C@H]3[C@@H]1CCC2=O [Estrone − 3 sulfate, estrone 3-sulfate] | 58.2 ± 8.5 % of control | 60.6 ± 8.4 % of control | – | – | –
N#CC(=Cc1ccc(O)cc1)C(=O)O [CHC, α-cyano-4-hydroxycinnamate] | 74.6 ± 7.1 % of control | 67.7 ± 9.0 % of control | – | – | –
O=C(O)CC(O)(CC(=O)O)C(=O)O [Citric acid, citric acid] | 125 ± 13 % of control | 113 ± 3 % of control | – | – | –
Nc1ccc(C(=O)NCC(=O)O)cc1 [PAH, para-aminohippuric acid] | 63.5 ± 5.5 % of control | 75.8 ± 2.3 % of control | 58.7 ± 2.9 % of control | 71.0 ± 5.5 % of control | –
CCCN(CCC)S(=O)(=O)c1ccc(C(=O)O)cc1 [probenecid] | – | – | – | – | IC50 (FRTL-5 cells): in the micromolar range
CC1=NN(c2ccccc2)C(=O)C1 [Edaravone, edaravone] | 68.6 ± 6.3 % of control | 67.3 ± 7.6 % of control | 81.0 ± 5.4 % of control | 80.3 ± 6.0 % of control | IC50 [3, 7]: 28.9 mM
O=C(O)c1ccccc1O [Salicylic acid] | 31.9 ± 1.6 % of control | 17.9 ± 1.5 % of control | 78.8 ± 8.6 % of control | 64.9 ± 2.0 % of control | IC50 [3, 8]: 7.36 mM
CCCC(CCC)C(=O)O [VPA, Valproic acid] | 37.4 ± 4.2 % of control | 35.9 ± 5.2 % of control | 78.4 ± 1.6 % of control | 78.3 ± 4.5 % of control | half-life [4]: 9 to 16 h; dependence of [^3H]VPA uptake [5, 9]: time, pH, and sodium dependent; Vmax1 ([5]; high-affinity site, pH 7.4): 0.0232 ± 0.0007 nmol/mg protein/10 s; Km1 [5, 10]: 19.1 ± 0.7 µM; Km2 [5, 11]: 1.14 ± 0.14 mM and 1.144 ± 0.143 mM; Vmax2 ([5]; low-affinity site, pH 7.4): 0.231 ± 0.015 nmol/mg protein/10 s; neuroprotective effect on cell viability (MTT) (NSC-34 WT cell line; [12]): restored the viability; neuroprotective effect on cell viability (MTT) (NSC-34 MT cell line; [12]): restored the viability; dependence of [^3H]VPA uptake [6, 9]: time, pH, and sodium dependent; Vmax1 ([6]; high-affinity site, pH 7.4): 0.0083 ± 0.0044 nmol/mg protein/10 s; Km1 [6, 10]: 37.8 ± 3.0 µM; Km2 [6, 11]: 4.59 ± 0.62 mM and 4.588 ± 0.620 mM; Vmax2 ([6]; low-affinity site, pH 7.4): 1.86 ± 0.24 nmol/mg protein/10 s and 1.864 ± 0.244 nmol/mg protein/10 s
CC(=O)O [Acetic acid, acetic acid] | 15.4 ± 1.4 % of control | 24.4 ± 3.0 % of control | 40.3 ± 5.0 % of control | 54.9 ± 6.7 % of control | –
NS(=O)(=O)c1cc(C(=O)O)c(NCc2ccco2)cc1Cl [Furosemide, furosemide] | – | – | 61.7 ± 2.2 % of control | 61.7 ± 6.3 % of control | [^3H]VPA uptake (% of control) ([1]; compound 5 mM, acidic pH): 82.3 ± 7.5 % of control; [^3H]VPA uptake (% of control) ([2]; compound 5 mM, acidic pH): 77.5 ± 4.9 % of control
O=C(O)CCCc1ccccc1 [PBA, 4-phenylbutyric acid] | 56.6 ± 3.0 % of control | 43.1 ± 2.2 % of control | – | – | –
O=S(=O)(O)c1cc(N=C=S)ccc1C=Cc1ccc(N=C=S)cc1S(=O)(=O)O [DIDS, 4,4′-diisothiocyano-2,2′-stilbenedisulfonic acid] | – | – | 58.8 ± 4.9 % of control | 54.8 ± 4.3 % of control | depletion in VPA transport ([1]; 1 mM): approximately 40%; depletion in VPA transport ([2]; 1 mM): approximately 40%
N[C@@H](CCC(=O)O)C(=O)O [glutamate] | – | – | – | – | effect of neurotoxic stimulus on cell viability (MTT) (NSC-34 WT cell line; glutamate 2 mM or H2O2 300 µM): significantly decreased the viability; effect of neurotoxic stimulus on cell viability (MTT) (NSC-34 MT cell line; glutamate 2 mM or H2O2 300 µM): significantly decreased the viability
CC(C(=O)O)c1cccc(C(=O)c2ccccc2)c1 (centres unmarked) [ketoprofen] | – | – | – | – | IC50 (FRTL-5 cells): in the micromolar range
CC(C)Cc1ccc(C(C)C(=O)O)cc1 (centres unmarked) [Ibuprofen] | 33.5 ± 1.0 % of control | 22.3 ± 1.5 % of control | 61.9 ± 7.5 % of control | 64.3 ± 3.6 % of control | IC50 (FRTL-5 cells): in the micromolar range; IC50 [3, 8]: 6.65 mM; IC50 [3, 7]: 36 mM
Nc1ccc(O)c(C(=O)O)c1 [5-aminosalicylic acid] | – | – | – | – | Ki/IC50 (SMCT1): 2.8 mM; Km (colonic mucosa): 2400 µM
